Assay results as given in publication PMC9804084, “Multiple drug transporters contribute to the brain transfer of levofloxacin” (CNS Neuroscience & Therapeutics, 2022).
Like-named read-outs stand apart in the source and are kept apart here.

Assays:
[1] = test system: Multidrug resistance-associated proteins (MRPs); experiment: In vivo microdialysis pharmacokinetics of LVFX with MRPs inhibitor MK571; parameters: species or system rat; details: for increase of AUC0–180 / increase of C max: treatment with MK571 vs control group; for Kp / MRT / half-life / Tmax / AUC(0-inf) / Cmax / AUC(0-t): rat, intravenous; for Kp: with MK571 20 mg/kg intraperitoneally; for MRT / half-life / Tmax / AUC(0-inf) / Cmax / AUC(0-t): with MK571 20 mg/kg i.p.; for MRT / half-life / AUC(0-inf) / Cmax / AUC(0-t): mean ± SD; for AUC(0-t): read-out: AUC0–180 (converted)
Description: On the day of surgery, rats were anesthetized using inhaled isoflurane via a facemask. The rats were placed in a stereotaxic frame (Gene&I), and the body temperature was maintained with a homoeothermic blanket set at 37°C. A midline incision was made to expose the skull. According to the Paxinos and Watson atlas, two microdialysis intracerebral guide cannulae (Eicom Co.) were implanted into the hippocampus CA1 region (Hp‐CA1 coordinates: AP −4.16 mm; ML −2.2 mm; DV −2.9 mm) and lateral ventricle (LV coordinates: AP −1.4 mm; ML +2.2 mm; DV −3.4 mm). Fixed to the skull using a screw and dental cement. After 3 days of recovery, the rats were anesthetized with isoflurane again. An intravascular probe (TP‐100‐20; 20 mm, Eicom Co.) was implanted into the jugular vein toward the right atrium. After the blood microdialysis probe was positioned within the jugular vein, the pipeline was connected to perfuse with ACD solution (citric acid 3.5 mM; sodium citrate 7.5 mM; dextrose 13.6 mM) at a flow rate of […], and the Hamilton microinjection pump was used for continuous perfusion. After stopping isoflurane inhalation, the rats were allowed to wake up naturally on the homoeothermic blanket. The awake rats were placed in a device that allowed them to move freely. Animals were allowed to recover for an additional 24 h.
All microdialysate concentrations (C m) from the hippocampal ECF and lateral ventricle CSF were converted to the unbound drug concentration (C u) at the target site using the following formula: C u = C m/R dial.
A total of 32 rats were randomly divided into the following groups: • Control group, N = 12: vehicle solution + LVFX (50 mg/kg). • TAR group, N = 5: Tariquidar (8 mg/kg) + LVFX (50 mg/kg). • Ko143 group, N = 5: Ko143 (15 mg/kg) + LVFX (50 mg/kg). • MK571 group, N = 5: MK571 (20 mg/kg) + LVFX (50 mg/kg). • PRO group, N = 5: Probenecid (50 mg/kg) + LVFX (50 mg/kg).
Levofloxacin was freshly dissolved in isotonic saline and administered via tail vein injection. Thirty minutes before LVFX administration, the intervention drugs of each group were injected intraperitoneally. To reduce the possible effect of solvents on BBB or BCSFB permeability of LVFX, we prioritized water as the solvent. However, Tariquidar and Ko143 are insoluble in water, and a cosolvent must be used to prepare agents that animals can tolerate. According to the different physicochemical properties of these four inhibitors, the preparation of each transporter inhibitor solution in this experiment was as follows. • P‐glycoprotein (P‐gp) inhibitor Tariquidar[22]: Tariquidar was freshly dissolved in DMSO to 8 mg/ml and then diluted to 4 mg/ml with a solution containing 10% Tween‐80, 25% PEG300, and 65% sterile water. • Breast cancer resistance protein (BCRP) inhibitor Ko143[23]: Ko143 was freshly dissolved in DMSO to 15 mg/ml and then diluted to 7.5 mg/ml with a solution containing 10% Tween‐80, 25% PEG300, and 65% sterile water. • Multidrug resistance‐associated proteins (MRPs) inhibitor MK571[24]: MK571 sodium salt hydrate was dissolved in 1.25% (w/v) aq sodium hydrogen carbonate (NaHCO3) solution to obtain a concentration of 10 mg/ml. • Organic anion transporters (OATs) inhibitor probenecid[25]: Probenecid was dissolved in NaOH (pH = 9.0–9.2) alkalized physiological saline to obtain a concentration of 25 mg/ml.
The pipelines where the blood and brain probes were installed were perfused at the speed of 2 μl/min with ACD solution and ACSF, respectively. Two brain probes were inserted into guide cannulas of the target site and allowed to equilibrate for 1 h. Subsequently, the rats were treated according to their corresponding groups in the device where they could move freely. Microdialyses samples were collected every 15 min using a fraction collector (EFC‐96, Eicom Co.) for 3 h and stored at 4°C until analysis. Finally, rats were anesthetized and decapitated, and their brain was harvested.

[2] = Stability of LVFX in QC samples (dialysate solvents) under storage conditions; format: physicochemical; details: for Calculated concentration (mean ± SD): n=3
Description: Using artificial cerebrospinal fluid (ACSF) and Ringer's solution as solvents, the LVFX concentration required for calibration and quality control (QC) samples was obtained by appropriate step‐by‐step dilution. A calibration curve was constructed using the relationship between the analyte peak area and analyte concentration obtained in the range of 0.01–30 μg/ml. Linearity was assessed by a weighted (1/x ^2) least squares regression analysis. The accuracy and precision of the method were evaluated by QC samples of high, medium, and low concentrations. Quantification of the concentration of QC samples was conducted three times on the same day to evaluate the intra‐day precision and accuracy. The same procedure was employed for 3 consecutive days to evaluate the inter‐day precision and accuracy of this method. The relative error (RE%) and relative standard deviation (RSD%) were used to evaluate the accuracy and precision, respectively. We evaluated the stability of LVFX in dialysates under short‐term (6 h) room temperature, low temperature (4°C), and freeze–thaw conditions (three cycles).

[3] = MK571 intervention vs control group
[4] = CSF (lateral ventricle microdialysate, unbound), 30 min before LVFX, CSF, MK571 group, MK571 20 mg/kg i.p. + LVFX 50 mg/kg, N=5
[5] = CSF (lateral ventricle microdialysate, unbound), CSF, MK571 group, MK571 20 mg/kg i.p. + LVFX 50 mg/kg, N=5
[6] = brain ECF (hippocampal microdialysate, unbound), 30 min before LVFX, brain ECF, MK571 group, MK571 20 mg/kg i.p. + LVFX 50 mg/kg, N=5
[7] = 30 min before LVFX, blood, MK571 group, MK571 20 mg/kg i.p. + LVFX 50 mg/kg, N=5

SMILES: C[C@H]1COc2c(N3CCN(C)CC3)c(F)cc3c(=O)c(C(=O)O)cn1c23 [LVFX, Levofloxacin]
- K p,uu,CSF ([1]; AUCu,CSF/AUCu,blood, MK571 group, MK571 20 mg/kg i.p. + LVFX 50 mg/kg, N=5): 47.9 ± 2.4 %
- K p,uu,ECF ([1]; AUCu,ECF/AUCu,blood, MK571 group, MK571 20 mg/kg i.p. + LVFX 50 mg/kg, N=5): 46.0 ± 1.5 %
- increase of AUC0–180 ([1]; CSF): 1.26 fold
- increase of C max ([1]; CSF): 1.50 fold
- increase in K p,uu,CSF [1, 3]: 1.16 fold
- increase in K p,uu,ECF [1, 3]: 1.35 fold
- increase of AUC0–180 ([1]; brain ECF): 1.47 fold
- increase of C max ([1]; brain ECF): 1.55 fold
- Kp ([1]; CSF (lateral ventricle microdialysate) relative to blood, 30 min before LVFX, AUCu,CSF/AUCu,blood, MK571 group, MK571 20 mg/kg i.p. + LVFX 50 mg/kg, N=5, read-out: K p,uu,CSF): 0.479 ± 0.024
- MRT [1, 4]: 75.8 min
- half-life [1, 4]: 54.9 ± 7.43 min
- Tmax [1, 5]: 15 min
- AUC(0-inf) [1, 5]: 5860 ng·h/mL
- Cmax [1, 5]: 5460 ± 190 ng/mL
- AUC(0-t) [1, 5]: 5290 ng·h/mL
- Kp ([1]; brain ECF (hippocampal microdialysate) relative to blood, 30 min before LVFX, AUCu,ECF/AUCu,blood, MK571 group, MK571 20 mg/kg i.p. + LVFX 50 mg/kg, N=5, read-out: K p,uu,ECF): 0.46 ± 0.015
- Tmax [1, 6]: 15 min
- AUC(0-inf) [1, 6]: 5630 ng·h/mL
- Cmax [1, 6]: 4210 ± 350 ng/mL
- MRT [1, 6]: 80.9 min
- half-life [1, 6]: 49 ± 15.1 min
- AUC(0-t) [1, 6]: 5080 ng·h/mL
- Tmax [1, 7]: 15 min
- AUC(0-inf) [1, 7]: 11700 ng·h/mL
- Cmax [1, 7]: 10100 ± 310 ng/mL
- MRT [1, 7]: 69.7 min
- half-life [1, 7]: 39.5 ± 4.79 min
- AUC(0-t) [1, 7]: 11000 ng·h/mL
- stability under storage conditions employed ([2]; QC samples, room temp 6 h, 4°C, freeze–thaw 3 cycles): stable
- maximum deviation in stability test of QC samples ([2]; all storage conditions (Table 2)): 4.71%
- Calculated concentration (mean ± SD) ([2]; freeze–thaw (3 cycles), nominal concentration 0.3 μg/ml): 0.289 ± 0.008 µg/mL
- Calculated concentration (mean ± SD) ([2]; freeze–thaw (3 cycles), nominal concentration 3 μg/ml): 2.960 ± 0.140 µg/mL
- Calculated concentration (mean ± SD) ([2]; freeze–thaw (3 cycles), nominal concentration 30 μg/ml): 29.959 ± 0.417 µg/mL
- Calculated concentration (mean ± SD) ([2]; low temperature (4°C) 12 h, nominal concentration 0.3 μg/ml): 0.294 ± 0.012 µg/mL
- Calculated concentration (mean ± SD) ([2]; low temperature (4°C) 12 h, nominal concentration 3 μg/ml): 3.055 ± 0.105 µg/mL
- Calculated concentration (mean ± SD) ([2]; low temperature (4°C) 12 h, nominal concentration 30 μg/ml): 29.844 ± 0.102 µg/mL
- Calculated concentration (mean ± SD) ([2]; short term (room temp) 6 h, nominal concentration 0.3 μg/ml): 0.293 ± 0.011 µg/mL
- Calculated concentration (mean ± SD) ([2]; short term (room temp) 6 h, nominal concentration 3 μg/ml): 3.098 ± 0.056 µg/mL
- Calculated concentration (mean ± SD) ([2]; short term (room temp) 6 h, nominal concentration 30 μg/ml): 30.608 ± 0.405 µg/mL
